Earlier results on 1 substance are cited in paper PMC6166790 (Nature, 2018).

This data set has as its system CLR/RAMP2 or CLR/RAMP3.

For the substance adrenomedullin [AM], the receptor response selectivity result is on record as “selective AM responses”.
